The record followed here is US20240109895A1, “OXASPIRO SUBSTITUTED PYRROLOPYRAZOLE DERIVATIVE, INTERMEDIATE THEREOF, AND PREPARATION METHOD THEREFOR” (SHANGHAI HAIYAN PHARMACEUTICAL TECHNOLOGY CO., LTD., priority 2020, published 2024).

The test system of one test is cAMP. In words: HTRF-cAMP cell assay.
The test system of another test is β-arrestin. In words: β-arrestin cell assay.

`CC(C)[C@@H]1C[C@H](NCC[C@@]2(c3ccccn3)CCOC3(CCCC3)C2)c2ccnn21` [Compound I-1]: in the test on cAMP (0.75 h, read-out: cAMP EC50(nM)), the EC50 was determined as 6 nM. Also, the maximal response (Emax) came out at 86.4% in the test with cAMP (read-out: cAMP Emax(%) Morphine is 100%) and 1.3% with β-arrestin (1.5 h, read-out: β-arrestin Emax(%) Morphine is 100%). Also, the “bias (cAMP versus β-arrestin)” value in the test on β-arrestin (comparison of Table 1 and Table 2) is listed as “good bias”.
